We go through five compounds from patent US20250163122A1, “COMPOSITIONS AND METHODS FOR TREATING AIRWAY MUCUS DYSFUNCTION” (BOARD OF REGENTS, THE UNIVERSITY OF TEXAS SYSTEM, priority 2022, published 2025).

Where a SMILES comes first, the peptide text is derived from it. Bridges are numbered along the chain shown (N, C = ends). [ ]: non-standard residue; d: D form. S5 = C=CCCC[C@](C)(N)C(=O)O

Assay [1] concerns the target T1, airway SNAREs only (Homo sapiens, UniProt O00161+Q13277+Q9BV40, C112S/C79S/C80S/C83S/C85S/C87S).
T1 sequence (Q9BV40 1-100): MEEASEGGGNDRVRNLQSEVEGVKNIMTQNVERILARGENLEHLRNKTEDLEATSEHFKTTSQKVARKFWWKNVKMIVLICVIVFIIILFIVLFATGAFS
T1 sequence (Q13277 1-289): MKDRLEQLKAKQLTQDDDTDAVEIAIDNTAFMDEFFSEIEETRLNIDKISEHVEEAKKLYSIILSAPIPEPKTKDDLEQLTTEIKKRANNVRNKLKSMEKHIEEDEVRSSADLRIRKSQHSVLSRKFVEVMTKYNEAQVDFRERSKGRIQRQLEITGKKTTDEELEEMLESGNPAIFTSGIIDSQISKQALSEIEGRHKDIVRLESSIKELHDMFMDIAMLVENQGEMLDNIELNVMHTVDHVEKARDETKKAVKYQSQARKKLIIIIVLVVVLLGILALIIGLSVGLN
T1 sequence (O00161 1-211 C79S/C80S/C83S/C85S/C87S/C112S): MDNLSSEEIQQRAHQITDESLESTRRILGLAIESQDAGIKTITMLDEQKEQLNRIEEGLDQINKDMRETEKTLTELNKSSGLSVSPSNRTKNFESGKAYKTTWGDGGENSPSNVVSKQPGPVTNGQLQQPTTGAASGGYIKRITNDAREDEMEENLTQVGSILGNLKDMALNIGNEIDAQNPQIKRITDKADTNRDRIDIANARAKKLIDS
The assay is described as follows: Single vesicle content mixing assay, airway SNAREs only (VAMP8 vesicles). Format: biochemical. As to conditions: 10 μM peptide; raw count. The text has this: (§1) For single vesicle content mixing assay, the lipid composition of the SV, SG, VAMP2, or VAMP8 vesicles was phosphatidylcholine (PC) (48%), phosphatidylethanolamine (PE) (20%), phosphatidylserine (PS) (12%), and cholesterol (20%); for both the neuronal and airway PM vesicles the lipid composition was Brain Total Lipid Extract supplemented 3.5 mol % PIP2, and 0.1 mol % biotinylated phosphatidylethanolamine (PE). The reconstitution method for neuronal PM and SV vesicles was described in detail previously (see Lai et al., 2017; Kyoung et al., 2011; and Lai et al., 2014). The same methods were used for airway PM, SG, VAMP2, and VAMP8 vesicles. […] A 3-5 fold excess of SNAP-25A or SNAP-23 (with respect to Stx1A or Stx3) and 3.5 mol % PIP2 were added to the protein-lipid mixture for neuronal or airway PM vesicles. […] For the preparation of SV, SG, VAMP2, or VAMP8 vesicles for single vesicle content mixing assay, 50 mM sulforhodamine B (Thermo Fisher Scientific) was added to the protein-lipid mixture. The vesicles subsequently formed during size exclusion chromatography using a Sepharose CL-4B column, packed under near constant pressure by gravity with a peristaltic pump (GE Healthcare) in a 5.5 ml column with a 5 ml bed volume that was equilibrated with buffer V (20 mM HEPES, pH 7.4, 90 mM NaCl) supplemented with 20 μM EGTA and 0.1% 2-mercaptoethanol. The eluent was subjected to dialysis into 21 of detergent-free buffer V supplemented with 20 μM EGTA, 0.1% 2-mercaptoethanol, 5 g of Bio-beads SM2 (Bio-Rad) and 0.8 g/L Chelex 100 resin (Bio-Rad). After 4 hours, the buffer was exchanged with 21 of fresh buffer V supplemented with 20 μM EGTA, 0.1% 2-mercaptoethanol and Bio-beads, and the dialysis continued for another 12 h (overnight). […] For ensemble lipid mixing assay, the reconstitution method is the same as that for the single vesicle content mixing assay, except that 50 mM sulforhodamine B was omitted for all the steps. Single vesicle content mixing experiments. All single vesicle fusion and single molecule experiments were performed on a prism-type total internal reflection fluorescence (TIRF) microscope using 532 nm (green) laser (CrystaLaser) excitation. Two observation channels were created by a 640 nm single-edge dichroic […]36, Shemrock): one channel was used for the fluorescence emission intensity of the content dyes and the other channel for that of the Cy5 dye that are part of the injected Ca^2+-solution. The two channels were recorded on two adjacent rectangular areas (45×90 m^2) of a charge-coupled device (CCD) camera (iXon+DV […], Andor Technology). The imaging data were recorded with the […] software developed by Taekjip Ha, Johns Hopkins University, Baltimore. Flow chambers were assembled by creating a “sandwich” consisting of a quartz slide and a glass coverslip that were both coated with polyethylene glycol (PEG) molecules consisting 0.1% (w/v) biotinylated-PEG except when stated otherwise, and using double-sided tape to create up to five flow-chambers. The single vesicle content mixing assay described in Lai et al. (2014) was used to monitor vesicle-vesicle association, Ca^2+-independent, and Ca^2+-triggered fusion. The surface of the quartz slides was passivated by coating the surface with polyethylene glycol (PEG) molecules which alleviated non-specific binding of vesicles. […]

Assay [2] concerns neuronal SNAREs only. In words: Single vesicle content mixing assay, neuronal SNAREs only (VAMP2 vesicles). Format: biochemical. As to conditions: 10 μM peptide; raw count.
From the text: as §1

As for “Ac-SKD(S5)GIR(S5)LV(S5)LDE(S5)GEQL-amide (Ac-SKD[S5]GIR[S5]LV[S5]LDE[S5]GEQL-NH2; staple 11-15, 4-8; SMILES CC[C@H](C)[C@@H]1NC(=O)CNC(=O)[C@@](C)(NC(=O)[C@H](CC(=O)O)NC(=O)[C@H](CCCCN)NC(=O)[C@H](CO)NC(C)=O)CCCC=CCCC[C@@](C)(C(=O)N[C@@H](CC(C)C)C(=O)N[C@H](C(=O)N[C@@]2(C)CCCC=CCCC[C@@](C)(C(=O)NCC(=O)N[C@@H](CCC(=O)O)C(=O)N[C@@H](CCC(N)=O)C(=O)N[C@@H](CC(C)C)C(N)=O)NC(=O)[C@H](CCC(=O)O)NC(=O)[C@H](CC(=O)O)NC(=O)[C@H](CC(C)C)NC2=O)C(C)C)NC(=O)[C@H](CCCNC(=N)N)NC1=O) [SP10]”, the “Ca2+ independent fusion events” value in assay [1] came out at 18; in assay [2], 341.

As to “EESKDAGIRTLVMLDEQGEQLD [Peptide P0, non-stapled SNAP-25A fragment used as a control, reference compound]”, the “Ca2+ independent fusion events” value in assay [1] is given as 38; in assay [2] it was 104.

Take `CC[C@H](C)[C@H](NC(=O)[C@]1(C)CCCC=CCCC[C@](C)(NC(=O)[C@H](CCC(=O)O)NC(=O)[C@H](CCC(=O)O)NC(C)=O)C(=O)N[C@@H](CCCCN)C(=O)N[C@@H](CC(=O)O)C(=O)N[C@@H](C)C(=O)N1)C(=O)N[C@@H](CCCNC(=N)N)C(=O)N[C@@]1(C)CCCC=CCCC[C@@](C)(C(=O)N[C@@H](CC(=O)O)C(=O)N[C@@H](CCC(=O)O)C(=O)N[C@@H](CCC(N)=O)C(=O)N[C@@H](CS)C(N)=O)NC(=O)[C@H](CCSC)NC(=O)[C@H](C(C)C)NC(=O)[C@H](CC(C)C)NC1=O` [SP9, Ac-EE(S5)KDA(S5)IR(S5)LVM(S5)DEQC-amide] (Ac-EE[S5]KDA[S5]IR[S5]LVM[S5]DEQC-NH2; staple 3-7, 10-14): the figures for the “Ca2+ independent fusion events” value in assay [1] and in assay [2] were 22 and 336, respectively.

“Ac-SKD(S5)GIR(S5)LVMLDE(S5)GEQ(S5)DR-amide (Ac-SKD[S5]GIR[S5]LVMLDE[S5]GEQ[S5]DR-NH2; staple 15-19, 4-8; SMILES CC[C@H](C)[C@@H]1NC(=O)CNC(=O)[C@@](C)(NC(=O)[C@H](CC(=O)O)NC(=O)[C@H](CCCCN)NC(=O)[C@H](CO)NC(C)=O)CCCC=CCCC[C@@](C)(C(=O)N[C@@H](CC(C)C)C(=O)N[C@H](C(=O)N[C@@H](CCSC)C(=O)N[C@@H](CC(C)C)C(=O)N[C@@H](CC(=O)O)C(=O)N[C@@H](CCC(=O)O)C(=O)N[C@@]2(C)CCCC=CCCC[C@@](C)(C(=O)N[C@@H](CC(=O)O)C(=O)N[C@@H](CCCNC(=N)N)C(N)=O)NC(=O)[C@H](CCC(N)=O)NC(=O)[C@H](CCC(=O)O)NC(=O)CNC2=O)C(C)C)NC(=O)[C@H](CCCNC(=N)N)NC1=O) [SP1]”: the “Ca2+ independent fusion events” value in assay [1] was found to be 26; in assay [2], 245.

Turning to “Ac-SKDA(S5)IRT(S5)VM(S5)DEQ(S5)EQL-amide (Ac-SKDA[S5]IRT[S5]VM[S5]DEQ[S5]EQL-NH2; staple 12-16, 5-9; SMILES CC[C@H](C)[C@@H]1NC(=O)[C@@](C)(NC(=O)[C@H](C)NC(=O)[C@H](CC(=O)O)NC(=O)[C@H](CCCCN)NC(=O)[C@H](CO)NC(C)=O)CCCC=CCCC[C@@](C)(C(=O)N[C@H](C(=O)N[C@@H](CCSC)C(=O)N[C@@]2(C)CCCC=CCCC[C@@](C)(C(=O)N[C@@H](CCC(=O)O)C(=O)N[C@@H](CCC(N)=O)C(=O)N[C@@H](CC(C)C)C(N)=O)NC(=O)[C@H](CCC(N)=O)NC(=O)[C@H](CCC(=O)O)NC(=O)[C@H](CC(=O)O)NC2=O)C(C)C)NC(=O)[C@H]([C@@H](C)O)NC(=O)[C@H](CCCNC(=N)N)NC1=O) [SP4]”, the “Ca2+ independent fusion events” value is given as 16 in assay [1] and 356 in assay [2].
